According to patent publication US20250032569A1, “COMPOSITION, IN PARTICULAR COSMETIC FORMULATION, COMPRISING A VERBASCOSIDE EXTRACT” (MEDENA AG, priority 2021, published 2025):

What was measured:
[1] = In vitro spectrophotometric SPF calculated by the Sayre equation (Eq. 1); type: physicochemical
Description: Each sample (1 ml) was placed in a 1 cm quartz cell. The absorbance was measured between 250-600 nm at an interval of every 1 nm using a Varian UV/Vis spectrophotometer (Cary 50 Scan). The following parameters were measured and calculated for each sample assuming standard application to the skin—2 mg/cm^2: • the SPF values. • the critical wavelength λC • the UVA/UVB ratio 1. […]
Each sample (1 ml) was placed in a 1 cm quartz cell. The absorbance was measured between 250-600 nm at an interval of every 1 nm using a Varian UV/Vis spectrophotometer (Cary 50 Scan). The following parameters were measured and calculated for each sample assuming standard application to the skin—2 mg/cm^2: • the SPF values. • the critical wavelength λC • the UVA/UVB ratio
The SPF values in vitro were calculated according to the method described by Sayre et al., (Sayre, R M; Agin, P P; LeVee, G J; Marlowe, E. A comparison of in vivo and in vitro testing of sunscreening formulas, Photochem. Photobiol. 1979, 29, 559-566). The calculation was done using Equation 1: […]
where Ss(λ) is the spectral irradiance, Ser(λ) is the CIE erythema action spectrum and T(λ) is the transmission of the sunscreen. The values of Ss(λ) and Ser(λ) were taken from the literature (B. L. Diffey, J. Robson. A new substrate to measure sunscreen protection factors throughout the ultraviolet spectrum, J. Soc. Cosmet. Chem. 1989, 40, 127-133). […]
SPF values were calculated using Eq. 1 for sun protective cosmetics applied at 2 mg/cm^2 (standard application).
The same methods and equations as in the case of plant extracts were applied.
Solutions of sunscreens at concentrations 0.001% were prepared in duplicate and UV-visible absorption spectra were recorded over the range of 250-600 nm (FIG. 1). On the basis of these spectra, the transmission of the sunscreen (T) was found from monochromatic absorbance values at wavelength λ: T=10^−A(λ).
The SPF in vitro was calculated according to the method described by Sayre et al., (Sayre, R M; Agin, P P; LeVee, G J; Marlowe, E. A comparison of in vivo and in vitro testing of sunscreening formulas, Photochem. Photobiol. 1979, 29, 559-566) following equation 1: […]
where Ss(λ) is the spectral irradiance, Ser(λ) the CIE erythema action spectrum and T(λ) the trans-mission of the sunscreen. Data for Ss(λ) and Ser(λ) are available in the literature (B. L. Diffey, J. Robson. A new substrate to measure sunscreen protection factors throughout the ultraviolet spectrum, J. Soc. Cosmet. Chem. 1989, 40, 127-133).
The SPF values were calculated using Eq 1 with the application conditions 2 mg/cm^2 (Standard application recommended by the European Agency).
The SPF value for lotions were calculated using Eq. 1 for three application conditions at 2 mg/cm^2 (standard application), 2.5 mg/cm^2 and 3 mg/cm^2. In the same Table 22, critical wavelength and the UVA/UVB ratios are shown.

[2] = Solubility of chemical UV filters
[3] = SPF calculated by modified Sayre method; type: physicochemical
Source text: In the following Table 20, there are SPF values obtained in vitro spectrophotometrically, which have been calculated by a classical Sayre method (Sayre, R M; Agin, P P; LeVee, G J; Marlowe, E. A comparison of in vivo and in vitro testing of sunscreening formulas, Photochem. Photobiol. 1979, 29, 559-566) and modified Sayre method, which gives results similar to those obtained in the in vivo tests recommended by COLIPA.
• (1) For water insoluble chemical filters, the modified Sayre method gives results close to those calculated by Simulator-Calculator (BASF) and the in vivo tests. The Simulator-Calculator uses the modified Sayre method assuming an exponentiation equal to 0.827 (X^0.827). • (2) For water soluble natural filters, the same modified Sayre method would give results close to those obtained by the in vivo tests (predicted by Simulator-Calculator). Examples of Cosmetic Compositions with Fully Natural Sun Protective Factors • 1. Sun protective lotion SPF 50+, high UV-A protection • 2. Sun protective cream SPF 50+, high UV-A protection • 3. Sun protective serum for pregnant and milking women SPF 50+, high UV-A protection • 4. Sun protective milk for babies SPF 50+, high UV-A protection • 5. Sun protective lotion SPF 20-30, high UV-A protection for people with highly sensitive skin E. Analysis of Sun Protective Parameters of Two Lotions and Cream Containing Lippia citriodora Extract with 40% of Verbascoside.

[4] = Critical wavelength (λC) from absorption spectra (Eq. 2); type: physicochemical; settings: for critical wavelength: chemical sunscreen, no concentration stated
Description: The Critical Wavelength λC is the wavelength, where the area under the absorbance spectrum for the irradiated product from 290 nm to λC is equal to 90% of the integral value of the absorbance spectrum from 290 to 400 nm and was calculated using Eq. 2:
where A (λ)=monochromatic absorbance values at wavelength λ. The critical wavelength was determined for all samples in order to assess a degree of UVA protection. In cases where the critical wavelength is lower than 370 nm, the protection from UVA is less evident.
The Critical Wavelength λC value for the test product was defined as that wavelength where the area under the absorbance spectrum of the sample from 290 nm to λC is 90% of the integral of the absorbance spectrum from 290 to 400 nm and is calculated using Eq. 2:
[formula] • A(λ)=monochromatic absorbance values at wavelength λ

[5] = UVA/UVB ratio from absorption spectra (Eq. 3) and Boots UVA Star Rating; type: physicochemical; settings: for ratio UVA/UVB: chemical sunscreen, no concentration stated
Description: Critical Wavelength (λC) and the UVA/UVB ratios were also calculated from the absorption spectra and were collected in Table 2. […] According to these International indications, aqueous solutions of Haberlea rhodopensis with different concentrations of myconoside can be attributed to the group of good protection (2 UVA Star Rating).
In order to further characterize solutions as skin photo-protectors from UVA, the UVA/UVB ratio was calculated using Eq. 3: […]
In order to characterize the ability of creams to protect skin against UVA the UVA/UVB ratio was calculated using Eq. 3: […]

[6] = Photo-stability under solar imitating UVA+UVB irradiation; type: physicochemical; settings: absorption spectra without and after up to 40 min irradiation
[7] = UV filter 0.5% in sun protective cosmetic (Table 20)
[8] = UV filter 1.0% in sun protective cosmetic (Table 20)
[9] = UV filter 2.5% in sun protective cosmetic (Table 20)
[10] = chemical UV filter 0.5% in sun protective solution (Tables 12-19)
[11] = chemical UV filter 1% in sun protective solution (Tables 12-19)
[12] = chemical UV filter 2.5% in sun protective solution (Tables 12-19)
[13] = chemical UV filter 5% in sun protective solution (Tables 12-19)
[14] = chemical UV filter 10% in sun protective solution (Tables 12-19)
[15] = UV filter 0.5% in sun protective cosmetic
[16] = UV filter 1.0% in sun protective cosmetic
[17] = UV filter 2.5% in sun protective cosmetic
[18] = UV filter 5% in sun protective cosmetic
[19] = UV filter 10% in sun protective cosmetic
[20] = chemical UV filter 0.5% in sun protective solution
[21] = chemical UV filter 1% in sun protective solution
[22] = chemical UV filter 2.5% in sun protective solution
[23] = chemical UV filter 5% in sun protective solution
[24] = chemical UV filter 10% in sun protective solution

| Compound | SPF values calculated by the Sayre equation [1, 7] | SPF values calculated by the Sayre equation [1, 8] | SPF values calculated by the Sayre equation [1, 9] | SPF values [1, 10] | SPF values [1, 11] | SPF values [1, 12] | SPF values [1, 13] | SPF values [1, 14] | SPF values calculated by Modified Sayre [3, 15] | SPF values calculated by Modified Sayre [3, 16] | SPF values calculated by Modified Sayre [3, 17] | SPF values calculated by Modified Sayre [3, 18] | SPF values calculated by Modified Sayre [3, 19] | Critical wavelength (λC) [4, 20] [nm] | Critical wavelength (λC) [4, 21] [nm] | Critical wavelength (λC) [4, 22] [nm] | Critical wavelength (λC) [4, 23] [nm] | Critical wavelength (λC) [4, 24] [nm] | critical wavelength [4] [nm] | UVA/UVB [5, 20] | also measured |
| --- | --- | --- | --- | --- | --- | --- | --- | --- | --- | --- | --- | --- | --- | --- | --- | --- | --- | --- | --- | --- | --- |
| CCCCCCCCCCCCc1cc(C)cc(-n2nc3ccccc3n2)c1O [benzotriazolyl dodecyl p-cresol, Benzotriazolyl dodecyl p-cresol] | 2.1 | 5 | 29 | 2.4 | 6 | 41 | 105 | 157 | 2.0 | 3.1 | 5.4 | 8.3 | 12.7 | 363 | 363 | 363 | 363 | 363 | 363 | 0.62 | SPF values calculated by the Sayre equation ([1]; UV filter 5% in sun protective cosmetic (Table 20)): 91; SPF values calculated by the Sayre equation ([1]; UV filter 10% in sun protective cosmetic (Table 20)): 132; Solubility in water [2]: insoluble in water; SPF values calculated by Modified Sayre ([3]; UV filter 20% in sun protective cosmetic): 19; UVA/UVB [5, 21]: 0.62; UVA/UVB [5, 22]: 0.62; UVA/UVB [5, 23]: 0.62; UVA/UVB [5, 24]: 0.62; ratio UVA/UVB [5]: 0.62 |
| CCCCC(CC)COc1ccc(-c2nc(-c3ccc(OC)cc3)nc(-c3ccc(OCC(CC)CCCC)cc3O)n2)c(O)c1 (stereo not drawn) [Bis-ethylhexyloxyphenol methoxyphenyl triazine] | 4.8 | 19 | 93 | 5.7 | 25 | 60 | 89 | 107 | 4.2 | 7.5 | 16.1 | 29 | 50 | 365 | 365 | 365 | 365 | 365 | 365 | 0.50 | SPF ([1]; chemical UV filter 1.5%): 60; SPF ([1]; chemical UV filter 2.0%): 89; Photo-stability to solar imitating UVA+UVB irradiation [6]: HIGHLY unstable; UVA/UVB [5, 21]: 0.50; UVA/UVB [5, 22]: 0.50; UVA/UVB [5, 23]: 0.50; UVA/UVB [5, 24]: 0.50; ratio UVA/UVB [5]: 0.50 |
